Assays:
[1] = target: human phosphodiesterase III (PDE III); conditions: cited from earlier work
[2] = test system: TPO-induced megakaryocytopoiesis; conditions: cited from earlier work
[3] = cited from earlier work
[4] = test system: erythroid or myelomonocytic differentiation; conditions: stimulated by erythropoietin or granulocyte-macrophage colony-stimulating factor; cited from earlier work
[5] = test system: human phosphodiesterase III (PDE III); assay: PDE III inhibition; format: biochemical; conditions: more potent than anagrelide
Source text: In early volunteer trials, the most frequently reported adverse effects AEs other than headache were palpitations, postural dizziness and nausea. During patient studies, the most frequently reported drug-related AEs were headache, palpitations, oedema/fluid retention, nausea/vomiting, diarrhea, dizziness and abdominal pain. These effects are all likely to arise from the secondary, cardiovascular pharmacology associated with anagrelide resulting from its inhibitory effects on human phosphodiesterase III (PDE III). […] Inhibition of myocardial PDE III leads to positive inotropy (increasing of the force of contractions of the heart), increased chronotropy (increase in heart rate), and peripheral vasodilatation. Such cardiovascular manifestations of this inhibition are typically seen with the classical positive inotropes, milrinone and enoximone, and exploited in the short-term acute treatment of congestive heart failure. However, in the treatment of a so-called silent disease (i.e., asymptomatic) such as ET, the cardiovascular side-effects of palpitations and tachycardia associated with anagrelide limit its utility and a significant proportion of patients—reportedly between 25 and 50%—fail to tolerate the drug during long term treatment.

[6] = Pharmacokinetics and exposure in humans; format: in vivo, human; conditions: typical exposures, greater than anagrelide
Source text: The PDE III inhibitory properties of anagrelide are quite distinct from its platelet lowering anti-megakaryocytic effects. Indeed studies have shown no correlation between potency as a PDE III inhibitor and anti-megakaryocytic effects for anagrelide and its principal pharmacologically active metabolite, 3-hydroxyanagrelide (3-OH anagrelide or 3-HA, formerly known as SPD604 or BCH24426). […] Anagrelide's active metabolite, 3-HA, is present in vivo in amounts greatly exceeding those of the parent drug with typical exposures being 2-3 fold greater. Thus by implication 3-OH anagrelide is likely to be a major contributor to the pharmacological actions of the drug.
In addition to the unwanted cardiovascular effects associated with PDE III inhibition, the consequent elevation of cAMP can result in an anti-aggregatory effect. While initially this property may appear to be beneficial in essential thrombocythemia patients predisposed to greater thrombotic risk, such anti-platelet effects, in excess, could have haemorrhagic consequences and on balance may not be desirable. […]

Row | SMILES | IC50 [1] [nM] | IC50 ([2]; estimated, in vitro human megakaryocytopoiesis, read-out: IC50 for inhibition of TPO-induced megakaryocytopoiesis) [nM] | first pass effect ([3]; in vivo) [%] | effect on erythroid or myelomonocytic differentiation [4] | potency in inhibition of megakaryocytopoiesis relative to parent drug ([2]; compared with anagrelide) | potency as PDE III inhibitor relative to anagrelide [5] | half-life ([3]; typical) [h] | exposure in vivo relative to parent drug [6]
1 | Cc1[nH]c(=O)c(C#N)cc1-c1ccncc1 [milrinone] | 170 to 350 | – | – | – | – | – | – | –
2 | O=C1CN2Cc3c(ccc(Cl)c3Cl)N=C2N1 [Anagrelide, 6,7-dichloro-1,5-dihydroimidazo[2,1-b]-quinazolin-2(3H)-one] | ~29 | ~26 | > 50 | does not affect | – | – | – | –
3 | O=C1NC2=Nc3ccc(Cl)c(Cl)c3CN2C1O (stereo not drawn) [3-hydroxyanagrelide] | – | – | – | – | no more potent than the parent drug | over 40 fold | 2.5 | 2-3 fold
